According to US20200326355A1, “Methods and Systems to Measure Cannabidiol (CBD)” (Laboratory Corporation of America Holdings, priority 2019, published 2020):

Test: LC-MS/MS measurement of hydrolyzed cannabinoid metabolites in urine of donors known to be CBD users
Conditions: urine of seven known CBD users abstaining from marijuana

Row | SMILES | carboxy-THC level in donated samples (13 of 16 samples detectible, all but one below the bound) | Parent THC detection in donated samples (16 samples)
1 | CCCCCc1cc(O)c2c(c1)OC(C)(C)[C@@H]1CCC(C(=O)O)=C[C@@H]21 [COO-THC, 11-carboxy Δ9-THC] | less than 15 ng/mL | –
2 | CCCCCc1cc(O)c2c(c1)OC(C)(C)[C@@H]1CCC(C)=C[C@@H]21 [THC, Tetrahydrocannabinol] | – | not detected
